Structures are written as SMILES.

Data on 18 molecules can be found in ChEMBL document CHEMBL1147590, “Synthesis and antitumor activity of s-tetrazine derivatives” (Bioorg Med Chem Lett, 2004).

For experiment [1], the system named is A549. The experiment can be described thus: In vitro rate of inhibition of A-549 tumor cell growth at 10E-4 mol/L. Format: functional, Homo sapiens. The settings on record: at 100 µM.
Experiment [2] concerns P388. Briefly: In vitro rate of inhibition of P388 tumor cell growth at 10E-4 mol/L. The class given is functional, Mus musculus. The following applies: at 100 µM.
Experiment [3] concerns A549. Briefly: In vitro rate of inhibition of A-549 tumor cell growth at 10E-8 mol/L. The class given is functional, Homo sapiens. The following applies: at 0.01 µM.
For experiment [4], the system named is P388. The experiment can be described thus: In vitro rate of inhibition of P388 tumor cell growth at 10E-8 mol/L. Format: functional, Mus musculus. The settings on record: at 0.01 µM.
Experiment [5] has as its system P388. Briefly: In vitro rate of inhibition of P388 tumor cell growth at 10E-6 mol/L. Format: functional, Mus musculus. The following applies: at 1 µM.
Experiment [6] relates to A549. Briefly: In vitro rate of inhibition of A-549 tumor cell growth at 10E-6 mol/L. Format: functional, Homo sapiens. The following applies: at 1 µM.
For experiment [7], the system named is P388. Briefly: In vitro rate of inhibition of P388 tumor cell growth at 10E-5 mol/L. The following applies: at 10 µM. The class given is functional, Mus musculus.
Experiment [8] concerns A549. Briefly: In vitro rate of inhibition of A-549 tumor cell growth at 10E-5 mol/L. The class given is functional, Homo sapiens. The following applies: at 10 µM.
Experiment [9] has as its system P388. Briefly: In vitro rate of inhibition of P388 tumor cell growth at 10E-7 mol/L. The settings on record: at 0.1 µM. Format: functional, Mus musculus.
Experiment [10] relates to A549. Briefly: In vitro rate of inhibition of A-549 tumor cell growth at 10E-7 mol/L. The class given is functional, Homo sapiens. The settings on record: at 0.1 µM.

`CCCCCCCCCCCCC/C=C/[C@@H](O)[C@H](CO)NC(C)=O`: the Rate of inhibition in the experiment on A549 [1] is on record as 24.6%; in the experiment on P388 [2], 73.4%; with A549 [3] it was 12.3%; in the experiment with P388 [4], 0%; in the experiment on P388 [5], 3.1%; in the experiment on A549 [6], 6.2%. For the same molecule, the Rate of inhibition in the experiment with P388 [7] is on record as 4.7%; in the experiment on A549 [8], 9.2%; in the experiment on P388 [9] it was 3.1%; in the experiment with A549 [10], 7.7%.

Consider `COc1cc(NC(=O)N2N=C(C)N(C(=O)Nc3cc(OC)cc(OC)c3)N=C2C)cc(OC)c1`, for which the Rate of inhibition in the experiment on A549 [1] was 87.5%; with P388 [2], 94.4%; in the experiment with A549 [3], 26.1%; in the experiment on P388 [4], 73.1%; with P388 [5], 88.9%; in the experiment with A549 [6], 77.3%. Moreover, the Rate of inhibition in the experiment on P388 [7] was determined as 88.8%; in the experiment on A549 [8], 79.3%; in the experiment with P388 [9] it was 90.7%; with A549 [10], 75%.

With `CCOC(=O)N1C(c2ccccc2)=NN=C(c2ccccc2)N1C(=O)OCC`, the Rate of inhibition with A549 [1] stood at 95.3%; in the experiment with P388 [2], 93.9%; with A549 [3], 0%; in the experiment on P388 [4], 2.8%; in the experiment with P388 [5] it was 7%; in the experiment on A549 [6], 0%. Further, the Rate of inhibition in the experiment with P388 [7] is 35.6%; in the experiment with A549 [8] it was 10.8%; in the experiment with P388 [9], 4.9%; in the experiment on A549 [10] it was 0%.

With `CC1=NN(C(=O)Nc2ccccc2C)C(C)=NN1C(=O)Nc1ccccc1C`, the Rate of inhibition with A549 [1] worked out at 80%; with P388 [2] it was 82.8%; in the experiment on A549 [3], 0%; in the experiment on P388 [4], 0%; with P388 [5] it was 1.6%; in the experiment on A549 [6], 0%. In addition, the Rate of inhibition in the experiment with P388 [7] was 18.8%; in the experiment on A549 [8], 0%; in the experiment on P388 [9], 0%; in the experiment with A549 [10], 0%.

Consider `CCOC(=O)c1ccc(NC(=O)N2N=C(C)N(C(=O)Nc3ccc(C(=O)OCC)cc3)N=C2C)cc1`, for which the Rate of inhibition with A549 [1] amounted to 27.3%; in the experiment with P388 [2], 63.5%; in the experiment with A549 [3], 0%; in the experiment with P388 [4] it was 0%; in the experiment with P388 [5], 1.6%; in the experiment with A549 [6], 0%. Moreover, the Rate of inhibition with P388 [7] is listed as 25.4%; with A549 [8], 28.8%; with P388 [9], 0%; with A549 [10], 0%.

On to `COc1ccc(NC(=O)N2N=C(C)N(C(=O)Nc3ccc(OC)cc3)N=C2C)cc1`, for which the Rate of inhibition in the experiment with A549 [1] was found to be 24.2%; in the experiment with P388 [2] it was 73%; in the experiment with A549 [3] it was 0%; in the experiment with P388 [4] it was 0%; in the experiment on P388 [5], 14.3%; in the experiment on A549 [6], 0%. In addition, the Rate of inhibition in the experiment on P388 [7] came out at 36.5%; in the experiment with A549 [8], 0.9%; in the experiment on P388 [9], 6.3%; in the experiment on A549 [10], 0%.

In the case of `COc1cccc(NC(=O)N2N=C(C)N(C(=O)Nc3cccc(OC)c3)N=C2C)c1`, the Rate of inhibition was found to be 87.7% in the experiment with A549 [1]; 95.3% in the experiment with P388 [2]; 86.2% in the experiment with A549 [3]; 92.2% in the experiment on P388 [4]; 93.8% in the experiment with P388 [5]; 84.6% in the experiment on A549 [6]. In addition, the Rate of inhibition with P388 [7] is recorded as 93.8%; in the experiment on A549 [8], 86.2%; in the experiment with P388 [9], 95.2%; in the experiment on A549 [10], 89.2%.

As to `CCCCCOC(=O)N1N=C(CCC)N=NC1CCC` (stereo not given), the Rate of inhibition in the experiment on A549 [1] is 0%; in the experiment on P388 [2] it was 32.8%; in the experiment on A549 [3], 2.5%; with P388 [4], 0%; with P388 [5], 5.6%; in the experiment with A549 [6], 2.3%. In addition, the Rate of inhibition with P388 [7] is 7.7%; with A549 [8], 0.7%; in the experiment on P388 [9] it was 0%; in the experiment with A549 [10] it was 0%.

With `CC1=NN(C(=O)Nc2cc(Cl)cc(Cl)c2)C(C)=NN1C(=O)Nc1cc(Cl)cc(Cl)c1`, the Rate of inhibition is on record as 42% in the experiment on A549 [1]; 30.6% with P388 [2]; 0% with A549 [3]; 0% with P388 [4]; 1.9% with P388 [5]; 0% in the experiment with A549 [6]. Moreover, the Rate of inhibition is 5.9% in the experiment on P388 [7], 0% with A549 [8], 0% in the experiment with P388 [9] and 0% in the experiment on A549 [10].

`CCCC1NN(C(C)=O)C(CCC)NN1C(C)=O` (stereo not given): the Rate of inhibition in the experiment on A549 [1] amounted to 59.8%; in the experiment on P388 [2], 38.5%; in the experiment with A549 [3], 0%; with P388 [4], 0%; in the experiment on P388 [5], 3.2%; in the experiment on A549 [6] it was 4%. The Rate of inhibition with P388 [7] stood at 5.5%; in the experiment on A549 [8], 8.6%; in the experiment with P388 [9], 3.1%; in the experiment with A549 [10] it was 1.2%.

`CC1=NN(C(=O)Nc2ccccc2Cl)C(C)=NN1C(=O)Nc1ccccc1Cl`: the Rate of inhibition in the experiment on A549 [1] was determined as 28.8%; with P388 [2], 90.5%; with A549 [3], 0%; in the experiment on P388 [4] it was 0%; with P388 [5], 1.6%; in the experiment with A549 [6] it was 0%. The Rate of inhibition in the experiment on P388 [7] is 41.3%; in the experiment with A549 [8], 0%; in the experiment with P388 [9], 0%; in the experiment on A549 [10], 0%.

As for `CC1=NN(C(=O)Nc2ccc(Cl)cc2)C(C)=NN1C(=O)Nc1ccc(Cl)cc1`, the Rate of inhibition with A549 [1] came to 53.4%; in the experiment with P388 [2], 50%; with A549 [3], 0%; with P388 [4], 0%; in the experiment on P388 [5] it was 1.9%; in the experiment on A549 [6], 1.9%. The Rate of inhibition amounted to 14.8% in the experiment with P388 [7], 14.8% with A549 [8], 7.4% with P388 [9] and 7.4% with A549 [10].

For `CC(=O)N1N=C(c2ccccc2)NN=C1c1ccccc1`, the Rate of inhibition in the experiment on A549 [1] is on record as 85.1%; in the experiment with P388 [2] it was 62.7%; in the experiment on A549 [3], 0%; with P388 [4], 9.2%; in the experiment on P388 [5], 6.6%; with A549 [6] it was 0%. Also, the Rate of inhibition is on record as 10.9% in the experiment with P388 [7], 0% in the experiment on A549 [8], 5.5% with P388 [9] and 0% with A549 [10].

For `CC1=NN(C(=O)Oc2ccccc2)C(C)N=N1` (stereo not given), the Rate of inhibition in the experiment on A549 [1] turned out to be 32.1%; in the experiment on P388 [2], 85.3%; in the experiment on A549 [3] it was 0%; with P388 [4], 0%; in the experiment on P388 [5], 13.6%; with A549 [6], 0%. For the same molecule, the Rate of inhibition in the experiment on P388 [7] stood at 27.9%; in the experiment on A549 [8], 0%; with P388 [9] it was 1.2%; with A549 [10], 0%.

For `CCCC1=NN(C(=O)OCC)C(CCC)N=N1` (stereo not given), the Rate of inhibition in the experiment with A549 [1] worked out at 12.5%; in the experiment with P388 [2], 35.4%; in the experiment with A549 [3], 0%; with P388 [4], 3.6%; in the experiment with P388 [5], 2.2%; with A549 [6], 0%. The Rate of inhibition in the experiment with P388 [7] is 15%; in the experiment with A549 [8] it was 0%; in the experiment with P388 [9], 5%; in the experiment with A549 [10], 0%.

Regarding `CCCC1=NN(C(=O)Nc2cccc(C)c2)C(CCC)=NN1C(=O)Nc1cccc(C)c1`, the Rate of inhibition with A549 [1] is 93.3%; in the experiment with P388 [2], 81.6%; with A549 [3], 0%; with P388 [4], 0%; with P388 [5] it was 0%; in the experiment with A549 [6] it was 74.1%. Further, the Rate of inhibition in the experiment on P388 [7] was found to be 63.9%; with A549 [8], 84.2%; in the experiment on P388 [9], 4.8%; with A549 [10], 4%.

Take `CCC1=NN(C(=O)Nc2cccc(C)c2)C(CC)=NN1C(=O)Nc1cccc(C)c1`: the Rate of inhibition stood at 90.4% with A549 [1]; 91.6% with P388 [2]; 1.6% in the experiment on A549 [3]; 0% in the experiment with P388 [4]; 0% in the experiment with P388 [5]; 81.1% with A549 [6]. For the same molecule, the Rate of inhibition with P388 [7] was 63.5%; in the experiment on A549 [8], 84.1%; in the experiment with P388 [9], 0%; with A549 [10], 16.7%.

`COc1ccccc1C(=O)N1N=C(c2ccccc2)NN=C1c1ccccc1`: the Rate of inhibition amounted to 90.9% in the experiment with A549 [1]; 64.5% in the experiment on P388 [2]; 0% in the experiment on A549 [3]; 0% in the experiment on P388 [4]; 7.4% in the experiment on P388 [5]; 4.7% in the experiment with A549 [6]. Further, the Rate of inhibition in the experiment with P388 [7] was 25.2%; with A549 [8] it was 72.6%; in the experiment on P388 [9], 0.8%; with A549 [10], 0%.
